For experiment [1], the target named is T1, Dual specificity mitogen-activated protein kinase kinase 1 (Homo sapiens, UniProt Q02750). Briefly: Inhibition of activated human MEK1 in MEK-ERK coupling assay at 10 uM.
The nature of experiment [2]: Inhibition of LPS-induced TNFalpha production in human monocyte THP1 cells. It is filed as functional, cell-based. The note with it: THP-1.
The nature of experiment [3]: Inhibition of human MEK1 activation by COT in COT-MEK-ERK coupling assay.
The target in experiment [4] is T1, Dual specificity mitogen-activated protein kinase kinase 1. Briefly: Inhibition of human MEK1 activation by bRaf in RAF-MEK-ERK coupling assay.
Experiment [5] shares this target. Briefly: Inhibition of ERK phosphorylation in THP1 cells. Format: functional, cell-based. The note with it: THP-1.
The target is the same in experiment [6]. The experiment can be described thus: Inhibition of activated human MEK1 in MEK-ERK coupling assay.

The source made the active and inactive calls. No cut-off for these calls is given here.

Our source for the Activity and IC50 values is ChEMBL document CHEMBL1141961, “Identification of coumarin derivatives as a novel class of allosteric MEK1 inhibitors” (Bioorg Med Chem Lett, 2005).

T1 sequence (Q02750 whole entry): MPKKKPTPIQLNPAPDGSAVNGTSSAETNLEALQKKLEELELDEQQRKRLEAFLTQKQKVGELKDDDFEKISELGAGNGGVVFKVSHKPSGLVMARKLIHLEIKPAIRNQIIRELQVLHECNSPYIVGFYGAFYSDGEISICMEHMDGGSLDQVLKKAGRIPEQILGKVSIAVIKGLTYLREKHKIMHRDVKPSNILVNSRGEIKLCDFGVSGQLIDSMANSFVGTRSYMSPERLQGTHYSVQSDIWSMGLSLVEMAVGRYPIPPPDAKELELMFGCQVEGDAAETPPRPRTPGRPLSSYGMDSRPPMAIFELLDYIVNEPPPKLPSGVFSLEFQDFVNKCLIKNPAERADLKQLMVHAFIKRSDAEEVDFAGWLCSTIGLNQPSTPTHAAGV

Consider `Cc1c(Cc2ccc(F)cc2)c(=O)oc2cc(OC(=O)N(C)C)ccc12`, for which, in experiment [1], the outcome was inactive. For the same compound, the half-maximal inhibitory concentration (IC50) in experiment [2] is 200 nM; in experiment [3], 300 nM; in experiment [4], 300 nM. Besides, the outcome in experiment [5] was Active.

As for `Cc1c(Cc2ccccc2)c(=O)oc2cc(OC(=O)N(C)C)c(Cl)cc12`, the values for the IC50 in experiment [2], in experiment [3] and in experiment [6] were 90 nM, 70 nM and 10 µM, respectively. Besides, in experiment [5], the outcome was Active.

On to `Cc1c(Cc2ccccc2)c(=O)oc2cc(OC(=O)C3CC3)ccc12`, for which the result in experiment [1] was inactive. Further, the IC50 in experiment [3] and in experiment [4] was 200 nM in each case.
